Here are results for 7 molecules from patent US11596639B2, “Substituted indole Mcl-1 inhibitors” (Vanderbilt University, priority 2016, dated 2023).

Like-named read-outs stand apart in the source and are kept apart here. Bounds are passed on as bounds.

One test deals with Mcl-1 (Homo sapiens (Human), UniProt Q07820). Description: TR-FRET binding assay, FITC-Bak peptide and MBP-tagged Mcl-1. The note with it: read-out: Ki for Inhibition of Mcl-1 by TR-FRET assay. As for the experimental part: Compounds are diluted in DMSO in a 16-point, semilog serial dilution scheme. […] The plate was mixed and incubated for 3 hours at room temperature. […] TR-FRET signal is plotted and IC50 and Ki values are calculated in the same manner as the fluorescence polarization anisotropy based competition assays.
For orientation: Time-resolved FRET reads energy transfer from a long-lived donor to a nearby acceptor.

Test [1] concerns H929 human cancer cell lines. The test is described as follows: Cellular viability / proliferation (Cell TiterGlo, 72 h). In kind it is cell-based. An outline of the steps: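 H929 cells plated at 1,000/well in 10% FBS medium received a 2-fold serial compound dilution (top 50 μM, DMSO <1%) 24 h later. After 72 h, viability was read by CellTiter-Glo luminescence. IC50 came from a four-parameter fit.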

Where [2] appears, read: Homo sapiens, NCI-H929, 72 h, read-out: GI50 on cellular proliferation of H929 human cancer cell lines, H929 cells, 72 h, Cell TiterGlo, 10% FBS.

Sequence of Mcl-1 (Q07820 172-327): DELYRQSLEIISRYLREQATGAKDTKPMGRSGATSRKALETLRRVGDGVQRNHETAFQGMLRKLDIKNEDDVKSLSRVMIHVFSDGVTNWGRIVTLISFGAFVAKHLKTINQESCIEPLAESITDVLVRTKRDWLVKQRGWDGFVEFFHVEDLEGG

Broadly, the Ki is a dissociation constant, usually derived from enzyme kinetics or from competition with a known ligand. On to `COCCn1c(C(=O)O)cc2cc(C)cc(N3C[C@@H](C)n4c(c(CCCOc5cc(C)c(Cl)c(C)c5)c5ccc(Cl)c(-c6c(C)ncnc6C)c54)C3=O)c21` [Example 594, (R)-7-(7-chloro-10-(3-(4-chloro-3,5-dimethylphenoxy)propyl)-6-(4,6-dimethylpyrimidin-5-yl)-4-methyl-1-oxo-3,4-dihydropyrazino[1,2-a]indol-2(1H)-yl)-1-(2-methoxyethyl)-5-methyl-1H-indole-2-carboxylic acid], for which the Ki at Mcl-1 was < 0.2 nM. The GI50 in test [1] (setting [2]) came out at 230 nM.

For `COCCn1cc(C(=O)O)c2cc(OC)cc(N3C[C@@H](C)n4c(c(CCCOc5cc(C)c(Cl)c(C)c5)c5ccc(Cl)c(-c6c(C)nn(C)c6C)c54)C3=O)c21` (single isomer, unassigned) [Example 672], the Ki on Mcl-1 came to 0.43 nM. Besides, the GI50 in test [1] (read-out: GI50 on cellular proliferation of H929 human cancer cell lines, H929 cells, 72 h, Cell TiterGlo, 10% FBS) came to 840 nM.

On to `Cc1cc(OCCCc2c3n(c4c(-c5c(C)nn(C)c5C)c(Cl)ccc24)[C@H](C)CN(c2cn(C)c4ccc(-n5ccnn5)nc24)C3=O)cc(C)c1Cl` [Example 659, (R)-7-Chloro-10-(3-(4-chloro-3,5-dimethylphenoxy)propyl)-4-methyl-2-(1-methyl-5-(1H-1,2,3-triazol-1-yl)-1H-pyrrolo[3,2-b]pyridin-3-yl)-6-(1,3,5-trimethyl-1H-pyrazol-4-yl)-3,4-dihydropyrazino[1,2-a]indol-1(2H)-one], for which the Ki at Mcl-1 stood at 0.96 nM. Also, the GI50 in test [1] (setting [2]) came out at 930 nM.

In the case of `Cc1cc(OCCCc2c3n(c4c(-c5c(C)nn(C)c5C)c(Cl)ccc24)[C@H](C)CN(c2cc(COCCN4CCOCC4)cc4cc(C(=O)O)n(C)c24)C3=O)cc(C)c1Cl` [Example 693, (R)-7-(7-chloro-10-(3-(4-chloro-3,5-dimethylphenoxy)propyl)-4-methyl-1-oxo-6-(1,3,5-trimethyl-1H-pyrazol-4-yl)-3,4-dihydropyrazino[1,2-a]indol-2(1H)-yl)-1-methyl-5-((2-morpholinoethoxy)methyl)-1H-indole-2-carboxylic acid], on Mcl-1, the Ki was < 0.2 nM. Moreover, in test [1] (setting [2]), the GI50 is 210 nM.

With `Cc1cc(OCCCc2c3n(c4c(-c5c(C)nn(C)c5C)c(Cl)ccc24)[C@H](C)CN(c2cc(OC(F)(F)F)cc4cc(C(=O)O)n(C)c24)C3=O)cc(C)c1Cl` [Example 479, (R)-7-(7-chloro-10-(3-(4-chloro-3,5-dimethylphenoxy)propyl)-4-methyl-1-oxo-6-(1,3,5-trimethyl-1H-pyrazol-4-yl)-3,4-dihydropyrazino[1,2-a]indol-2(1H)-yl)-1-methyl-5-(trifluoromethoxy)-1H-indole-2-carboxylic acid], the Ki on Mcl-1 is 0.95 nM. In addition, the GI50 in test [1] (setting [2]) was determined as 1500 nM.

For `COCCOc1cc(N2C[C@@H](C)n3c(c(CCCOc4cc(C)c(Cl)c(C)c4)c4ccc(Cl)c(-c5c(C)ncnc5C)c43)C2=O)c2c(c1)cc(C(=O)O)n2Cc1cccc(C)n1` [Example 571, (R)-7-(7-chloro-10-(3-(4-chloro-3,5-dimethylphenoxy)propyl)-6-(4,6-dimethylpyrimidin-5-yl)-4-methyl-1-oxo-3,4-dihydropyrazino[1,2-a]indol-2(1H)-yl)-5-(2-methoxyethoxy)-1-((6-methylpyridin-2-yl)methyl)-1H-indole-2-carboxylic acid], at Mcl-1, the Ki is < 0.2 nM. The GI50 in test [1] (setting [2]) was < 200 nM.

For the molecule `Cc1cc(OCCCc2c3n(c4c(-c5c(C)nc(CN6CCN(C)CC6)nc5C)c(Cl)ccc24)[C@H](C)CN(c2cn(C)c4ccc(-c5ncn(C)n5)cc24)C3=O)cc(C)c1Cl` [Example 502, (R)-7-chloro-10-(3-(4-chloro-3,5-dimethylphenoxy)propyl)-6-(4,6-dimethyl-2-((4-methylpiperazin-1-yl)methyl)pyrimidin-5-yl)-4-methyl-2-(1-methyl-5-(1-methyl-1H-1,2,4-triazol-3-yl)-1H-indol-3-yl)-3,4-dihydropyrazino[1,2-a]indol-1(2H)-one], at Mcl-1, the Ki came out at 2.9 nM. For the same molecule, the GI50 in test [1] (setting [2]) is < 200 nM.
